These results are taken from patent US7544703B2, “Cyclic compound having 4-pyridylalkylthio group having substituted or unsubstituted amino group introduced therein” (Santen Pharmaceutical Co., Ltd., priority 2004, dated 2009).

Counter-ions that a name gives are not always drawn.

The test system of the experiment is HUVEC (normal human umbilical vein endothelial cells). Briefly: VEGF-induced HUVEC proliferation: cell proliferation inhibitory action test.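 Further: each well holds 100 µL cell suspension before compound addition.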 It counts as cell-based. The conditions noted are these: 72 h, 5 μL of 20 μg/mL test compound solution per well, WST-8 absorbance at 450 nm three days after VEGF addition, read-out: Cell proliferation inhibition rate (%). Here is the method: A cell proliferation inhibitory action test of the compounds of the present invention was performed using a VEGF-induced HUVEC proliferation evaluation system (HUVEC stands for normal human umbilical vein endothelial cells), which is one of the widely-used methods of evaluating in vitro angiogenesis inhibitory effects of drugs. As one of the widely-used methods of evaluating angiogenesis inhibitory effects of drugs, a cell proliferation inhibitory action test using a VEGF-induced HUVEC proliferation reaction evaluation system has been reported in Cancer Res., 59, 99-106 (1999). According to the method described in the above-mentioned document, a cell proliferation inhibitory action test of the compounds of the present invention was performed, the cell proliferation inhibition rate was calculated, and the angiogenesis inhibitory effect of each of the compounds of the present invention was evaluated using the obtained rate as an index. Each test compound was dissolved in dimethyl sulfoxide (hereinafter abbreviated as DMSO), and the obtained solution was diluted with a commercially available phosphoric acid buffer solution (hereinafter abbreviated as PBS), whereby a 20 μg/mL test compound solution was prepared. HUVEC was suspended in a 0.5% fetal bovine serum (hereinafter abbreviated as FBS)-containing F12K medium, whereby a 2×10^4 cells/mL HUVEC suspension was prepared. VEGF was dissolved in 0.1% bovine serum albumin-containing PBS, and the obtained solution was diluted with the 0.5% FBS-containing F12K medium, whereby a 400 ng/mL VEGF solution was prepared. • 1) The HUVEC suspension was inoculated in an amount of 100 μL into each well of a 96-well plate coated with type I collagen (2×10^3 cells per well). • 2) One day after the inoculation, the test compound solution was added in an amount of 5 μL per well. • 3) One hour after the addition of the test compound solution, the VEGF solution was added in an amount of 5 μL per well. • 4) Three days after the addition of the VEGF solution, WST-8 assay kit (Dojin Chemical Co., Ltd.) was added in an amount of 10 μL per well. • 5) After 3 hours, the above-mentioned plate was attached to an absorptiometer (Multilabel Counter ARVO), and an absorbance at 450 nm of each well suspension (hereinafter referred to as test compound suspension) was measured. • 6) A test was carried out in the same manner as in the above 1) to 5) except that 1.0% DMSO was used instead of the test compound solution. The result was used as a control. Incubation was carried out under conditions of 37° C., 5% carbon dioxide and […] in an incubator throughout the above-mentioned test steps. The cell proliferation inhibition rate (%), which was used as an index of an angiogenesis inhibitory effect, was calculated according to the following calculation equation. Cell proliferation inhibition rate (%)=100−{(Absorbance of test compound suspension−A)/(absorbance of control−A)}×100 (Calculation Equation) A: Absorbance of only cell suspension (cell+medium) (Test Results and Discussion)
In the case of `CNc1cc(CSc2ncccc2C(=O)Nc2ccc3c(c2)CCC3)ccn1` [Compound 3-7, N-(Indan-5-yl)-2-(2-methylaminopyridin-4-ylmethylthio)pyridine-3-carboxamide monohydrochloride], the inhibition at 20 µg/mL (stock) was 96%.
With `Nc1cc(CSc2ncccc2C(=O)Nc2cc3ccccc3cn2)ccn1` [Compound 3-13, 2-(2-Aminopyridin-4-ylmethylthio)-N-(isoquinolin-3-yl)pyridine-3-carboxamide], the inhibition at 20 µg/mL (stock) was determined as 100%.
With `O=C(Nc1ccc2c(c1)CCC2)c1cccnc1SCc1ccnc(N2CCOCC2)c1` [Compound 1-10, N-(Indan-5-yl)-2-(2-morpholinopyridin-4-ylmethylthio)pyridine-3-carboxamide] the figure was 94%; with `CNC(=O)Nc1cc(CSc2ncccc2C(=O)Nc2ccc(OC(F)(F)F)cc2)ccn1` [Compound 9-2, 2-[2-(N′-Methylureido)pyridin-4-ylmethylthio]-N-(4-trifluoromethoxyphenyl)pyridine-3-carboxamide], 100%.
In the case of `CC(=O)N(C)c1cc(CSc2ncccc2C(=O)Nc2cc(C)cc(C)c2)ccn1` [Compound 4-12, 2-[2-(N-Acetyl-N-methylamino)pyridin-4-ylmethylthio]-N-(3,5-dimethylphenyl)pyridine-3-carboxamide], the inhibition at 20 µg/mL (stock) was 100%.
On to `CC(=O)Nc1cc(CSc2ncccc2C(=O)Nc2cc(C)c(O)c(C)c2)ccn1` [Compound 4-37, 2-(2-Acetylaminopyridin-4-ylmethylthio)-N-(3,5-dimethyl-4-hydroxyphenyl)pyridine-3-carboxamide], for which the inhibition at 20 µg/mL (stock) was 100%.
Under `CC(C)(C)OC(=O)Nc1cc(CSc2ncccc2C(=O)Nc2ccc(OC(F)(F)F)cc2)ccn1` [Compound 2-4, 2-(2-tert-Butoxycarbonylaminopyridin-4-ylmethylthio)-N-(4-trifluoromethoxyphenyl)pyridine-3-carboxamide] stands 99%; under `Cc1cc(C)cc(NC(=O)c2cccnc2SCc2ccnc(NC(=O)NC(C)(C)C)c2)c1` [Compound 5-2, 2-[2-(N′-tert-Butylureido)pyridin-4-ylmethylthio]-N-(3,5-dimethylphenyl)pyridine-3-carboxamide], 100%; under `CCCNC(=O)Nc1cc(CSc2ncccc2C(=O)Nc2cc(C)cc(C)c2)ccn1` [Compound 5-1, N-(3,5-Dimethylphenyl)-2-[2-(N′-n-propylureido)pyridin-4-ylmethylthio]pyridine-3-carboxamide], 100%.
For the compound `CC(=O)Nc1cc(CSc2ncccc2C(=O)Nc2ccc3cn[nH]c3c2)ccn1` [Compound 4-22, 2-(2-Acetylaminopyridin-4-ylmethylthio)-N-(1H-indazol-6-yl)pyridine-3-carboxamide], the inhibition at 20 µg/mL (stock) turned out to be 97%.
With `Cc1cc(C)cc(NC(=O)c2cccnc2SCc2ccnc(N3CCCCC3)c2)c1` [Compound 1-5, N-(3,5-Dimethylphenyl)-2-[2-(piperidin-1-yl)pyridin-4-ylmethylthio]pyridine-3-carboxamide], the inhibition at 20 µg/mL (stock) stood at 90%.
Under `Cc1cc(C)cc(NC(=O)c2cccnc2SCc2ccnc(N(C)CCN(C)C)c2)c1` [Compound 1-3, 2-[2-(N-(2-Dimethylaminoethyl)-N-methylamino)pyridin-4-ylmethylthio]-N-(3,5-dimethylphenyl)pyridine-3-carboxamide] stands 99%; under `CNC(=O)Nc1cc(CSc2ncccc2C(=O)Nc2ccc(Cl)cc2)ccn1` [Compound 9-3, N-(4-Chlorophenyl)-2-[2-(N′-methylureido)pyridin-4-ylmethylthio]pyridine-3-carboxamide], 100%; under `CC(=O)Nc1cc(CSc2ccccc2C(=O)Nc2ccc(C(C)(C)C)cc2)ccn1` [Compound 4-44, 2-(2-Acetylaminopyridin-4-ylmethylthio)-N-(4-tert-butylphenyl)benzamide], 85%.
`Cc1cc(C)cc(NC(=O)c2cccnc2SCc2ccnc(NC3CC3)c2)c1` [Compound 1-2, 2-(2-Cyclopropylaminopyridin-4-ylmethylthio)-N-(3,5-dimethylphenyl)pyridine-3-carboxamide]: the inhibition at 20 µg/mL (stock) is 100%.
For `Cc1cc(C)cc(NC(=O)c2cccnc2SCc2ccnc(Nc3ncc(C#N)s3)c2)c1` [Compound 2-24, 2-[2-(5-Cyanothiazol-2-ylamino)pyridin-4-ylmethylthio]-N-(3,5-dimethylphenyl)pyridine-3-carboxamide], the inhibition at 20 µg/mL (stock) turned out to be 88%.
With `Cc1cc(C)cc(NC(=O)c2cccnc2SCc2ccnc(Nc3ccccc3)c2)c1` [Compound 8-1, N-(3,5-Dimethylphenyl)-2-(2-phenylaminopyridin-4-ylmethylthio)pyridine-3-carboxamide], the inhibition at 20 µg/mL (stock) was determined as 100%.
Consider `CC(=O)N1CCN(c2cc(CSc3ncccc3C(=O)Nc3ccc4c(c3)CCC4)ccn2)CC1` [Compound 1-11, 2-[2-(4-Acetylpiperazin-1-yl)pyridin-4-ylmethylthio]-N-(indan-5-yl)-pyridine-3-carboxamide], for which the inhibition at 20 µg/mL (stock) was found to be 96%.
Under `CN(C)CCN(C)CC(=O)NC(Sc1ncccc1C(=O)Nc1ccc(OC(F)F)cc1)c1ccncc1` (centres unmarked) [Compound 17-50, N-(4-Difluoromethoxyphenyl)-2-[2-(N-(2-dimethylaminoethyl)-N-methylamino)acetylaminopyridin-4-ylmethylthio]pyridine-3-carboxamide] stands 100%; under `Cc1cc(C)cc(NC(=O)c2cccnc2SCc2ccnc(NC(=O)C(C)(C)C)c2)c1` [Compound 4-5, N-(3,5-Dimethylphenyl)-2-(2-pivaloylaminopyridin-4-ylmethylthio)pyridine-3-carboxamide], 100%.
As for `Cc1cc(C)cc(NC(=O)c2cccnc2SCc2ccnc(NS(=O)(=O)C(F)(F)F)c2)c1` [Compound 4-6, N-(3,5-Dimethylphenyl)-2-(2-trifluoromethanesulfonylaminopyridin-4-ylmethylthio)pyridine-3-carboxamide], the inhibition at 20 µg/mL (stock) was determined as 100%.
As to `CC(C)(C)OC(=O)Nc1cc(CSc2ncccc2C(=O)Nc2ccc3cn[nH]c3c2)ccn1` [Compound 2-6, 2-(2-tert-Butoxycarbonylaminopyridin-4-ylmethylthio)-N-(1H-indazol-6-yl)pyridine-3-carboxamide], the inhibition at 20 µg/mL (stock) stood at 100%.
Consider `Cc1cc(C)cc(NC(=O)c2sccc2SCc2ccnc(N)c2)c1` [Compound 3-28, 3-(2-Aminopyridin-4-ylmethylthio)-N-(3,5-dimethylphenyl)thiophene-2-carboxamide], for which the inhibition at 20 µg/mL (stock) worked out at 100%.
Turning to `CC(C)(C)c1ccc(NC(=O)c2cccnc2SCc2ccnc(N)c2)cc1` [Compound 3-4, 2-(2-Aminopyridin-4-ylmethylthio)-N-(4-tert-butylphenyl)pyridine-3-carboxamide monohydrochloride], the inhibition at 20 µg/mL (stock) turned out to be 100%.
For the compound `CC(=O)Nc1cc(CSc2ccccc2C(=O)Nc2ccc(Cl)cc2)ccn1` [Compound 4-42, 2-(2-Acetylaminopyridin-4-ylmethylthio)-N-(4-chlorophenyl)benzamide], the inhibition at 20 µg/mL (stock) was found to be 100%.
As for `Nc1cc(CSc2ncccc2C(=O)Nc2ccc(Cl)cc2)ccn1` [Compound 3-9, 2-(2-Aminopyridin-4-ylmethylthio)-N-(4-chlorophenyl)pyridine-3-carboxamide monohydrochloride], the inhibition at 20 µg/mL (stock) turned out to be 100%.
With `CC(C)(C)OC(=O)Nc1cc(CSc2ncccc2C(=O)Nc2ccc3c(c2)CCC3)ccn1` [Compound 2-3, 2-(2-tert-Butoxycarbonylaminopyridin-4-ylmethylthio)-N-(indan-5-yl)pyridine-3-carboxamide], the inhibition at 20 µg/mL (stock) was 100%.
Turning to `Nc1cc(CSc2ccccc2C(=O)Nc2ccc(Cl)cc2)ccn1` [Compound 3-21, 2-(2-Aminopyridin-4-ylmethylthio)-N-(4-chlorophenyl)benzamide monohydrochloride], the inhibition at 20 µg/mL (stock) was 100%.
`Cc1cc(C)cc(NC(=O)c2cccnc2SCc2ccnc(NC=O)c2)c1` [Compound 6-1, N-(3,5-Dimethylphenyl)-2-(2-formylaminopyridin-4-ylmethylthio)pyridine-3-carboxamide]: the inhibition at 20 µg/mL (stock) worked out at 100%.
